This assay deals with A375 cells. As to the kind of experiment: A375 Cell Viability Assay (CTGlo), Example 16. The assay is classed as cell-based, human. The settings on record: 72 h, 10-point dose series, in words (FIG. 83). Here is the method: The effect of compounds of the invention on cell viability was assessed based on the quantification of ATP using the CellTiter-Glo® 2.0 (referred to here as CTGlo) Cell Viability Assay (Catalog No. G9243, Promega, Madison, WI, USA), which signals the presence of metabolically active cells.
A375 cells were obtained from ATCC (Catalog No. CRL-1619, Manassas, VA, USA) (also referred to here as A375.1) and were maintained in DMEM, (Corning, Catalog No. 10-017-CV, Glendale, AZ, USA) supplemented with 10% fetal bovine serum (FBS; Catalog No. 16000044, Gibco, Grand Island, NY, USA) at 37° C. in an atmosphere of 5% CO2 in air. The cells were routinely sub-cultured to maintain cell density between 3×10^5-1.5×10^6 cells/mL. […] An aliquot of cell suspension was diluted 2× with a 0.4% Trypan Blue solution (Catalog No. 15250061, ThermoFisher Scientific, Waltham, MA, USA) and cell count was determined. […]
Test compounds were prepared by dissolving neat compounds in dimethyl sulfoxide (DMSO; Catalog No. D8418, Sigma-Aldrich, Inc., St. Louis, MO, USA) to generate 10 mM stock solution and stored at −20° C. […] CellTiter-Glo® reagent was then added to the cells and luminescence signals were measured after 4 hours using an EnVision™ Multimode plate reader (Perkin Elmer, Santa Clara, CA). […]

From patent publication US20260297060A1, “COMPOUNDS FOR THE DEGRADATION OF MUTANT BRAF” (C4 THERAPEUTICS, INC., priority 2023, published 2026) come the findings set out here.

On to `CCN(C)S(=O)(=O)Nc1ccc(F)c(Oc2ccc3ncn([C@H]4COC5(CCN(C6CC7(C6)CN(c6cc8c(cc6F)c(N6CCC(=O)NC6=O)nn8C)C7)CC5)C4)c(=O)c3c2)c1C#N` [Compound 26, (3R)-3-[6-[2-cyano-3-[[ethyl(methyl)sulfamoyl]amino]-6-fluoro-phenoxy]-4-oxo-quinazolin-3-yl]-8-[2-[3-(2,4-dioxohexahydropyrimidin-1-yl)-5-fluoro-1-methyl-indazol-6-yl]-2-azaspiro[3.3]heptan-6-yl]-1-oxa-8-azaspiro[4.5]decane], for which the “impact on viability of A375 cells” value is given as “significant impact on the viability of A375 cells”.
For `CCN(C)S(=O)(=O)Nc1ccc(F)c(Oc2ccc3ncn(C4CC5(CCN(C6CC7(C6)CN(c6cc8c(cc6F)c(N6CCC(=O)NC6=O)nn8C)C7)CC5)C4)c(=O)c3c2)c1C#N` (centres unmarked) [Compound 141, 6-[2-cyano-3-[[ethyl(methyl)sulfamoyl]amino]-6-fluoro-phenoxy]-3-[7-[2-[3-(2,4-dioxohexahydropyrimidin-1-yl)-5-fluoro-1-methyl-indazol-6-yl]-2-azaspiro[3.3]heptan-6-yl]-7-azaspiro[3.5]nonan-2-yl]-4-oxo-quinazoline] the value was “significant impact on the viability of A375 cells”.
